Assay results: patent US6361995B1, “Protection of pancreatic β-cells during islet isolation and assessment of islet viability and candidate diabetes drugs after islet isolation” (NAB Research Foundation, priority 1999, dated 2002)

How the values were obtained:
β-TC3 cells = assay: Protein O-glycosylation in β-TC3 cells (RL2 immunoprecipitation and Western blotting); assay type: cell-based; conditions: 5 mM, 60 min after 30 min in 0 mM glucose (FIG. 8)
Experimental: β-TC3 cells (passage 37) were obtained form the University of Pennsylvania Diabetes Center from Dr. D. Hanahan (University of California, San Francisco). β-TC3 cells were cultured in 10-cm dishes in the presence of RPMI 1640 medium supplemented with 10% fetal bovine serum, penicillin (75 μg/ml), streptomycin (50 μg/ml), and 2 mM L-glutamine. Cells were trypsinized and subcloned weekly. Media were changed twice weekly and on the day prior to an experiment, and insulin responsiveness to glucose and carbachol was routinely monitored. Cells were used between passages 38 and 55.
β-TC3 cells in 10-cm dishes were washed three times in Krebs'-HEPES buffer (25 mM HEPES, pH 7.40, 115 mM NaCl, 24 mM NaHCO3, 5 mM KCl, 2.5 mM CaCl2, 1 mM MgCl2) supplemented with 0.1% bovine serum albumin and 1 mM L-glutamine. Cells were pre-incubated in 5 ml of the same buffer for 30 min at 37° C. under an atmosphere of 95% air/5% CO2. After 30 min, the pre-incubation buffer was aspirated and cells were incubated at 37° C. under an atmosphere of 95% air/5% CO2 with 5 ml of Krebs'-HEPES buffer supplemented with the appropriate secretagogue. At the end of the incubation period, supernatant was removed for insulin radioimmunoassay. Cells left in the dishes were processed for subsequent immunoprecipitation as described below.
At the end of the experiment, all supernatant was removed from the tubes or dishes. […]

isolated islets = assay: Insulin secretion from isolated islets (radioimmunoassay); assay type: cell-based, rat; conditions: for Insulin (secretion in isolated islets): islets isolated in 11 mM glucose and 1 mM L-glutamine
Experimental: (§1) In a typical experiment, islets were isolated aseptically from 3-4 male Sprague-Dawley rats. During surgery, the common bile duct of each pancreas was cannulated, and the pancreas was inflated with 20 ml of Hank's Balanced Salt Solution (HBSS). The distended pancreas was excised, and lymph nodes, fat, blood vessels, and bile ducts were removed under a stereo dissecting microscope. Tissue was chopped extensively and rinsed 5-6 times with HBSS. The tissue was digested with collagenase P (3 mg/ml tissue) at 37° C. for 3-4 min using a wrist action shaker. Digested tissue was rinsed 3-4 times with HBSS, and islets were purified on a discontinuous Ficoll gradient consisting of 27%, 23%, 20.5%, and 11% Ficoll in (25 mM) HEPES-HBSS buffer. Islets were harvested from the gradient and washed once with HBSS. Islets were washed 6 times in DMEM supplemented with 25 mM HEPES pH 7.40, 25 mM NaHCO3, 0.1% bovine serum albumin, 3 mM glucose, and 1 mM L-glutamine (complete DMEM). This isolation procedure typically provided 300-400 islets per rat, which were then used as described below. In selected experiments, islets were isolated as described above, except that all isolation buffers were supplemented t o contain 11 mM glucose and 1 mM L-glutamine.
(§2) Freshly isolated islets were placed into siliconized 16×100-mm round bottom, screw-cap tubes and pre-incubated for 30 min in 1 ml of complete DMEM. For each experiment, 100 islets were placed into each tube. Pre-incubation and all subsequent incubations were performed at 37° C. under an atmosphere of 95% O2/5% CO2. After 30 min, pre-incubation buffer was aspirated, and islets were incubated with complete DMEM supplemented with the appropriate secretagogue. At the end of the incubation period, the entire supernatant was removed for insulin radioimmunoassay. Islets were processed for subsequent immunoprecipitation as described below. For each experiment, insulin secretion in the control sample was set at 100% and all other results were expressed as percentages of control.
Films were photographed using a Sony digital camera, and intensities of bands present on films were quantitated using the program NIH Image. All results are expressed as the mean±SEM, using the Windows-compatible version 2.98 of the program FigP (Biosoft, St. Louis, Mo.). Statistical analysis was performed using the same program. Data were analyzed by one-way analysis of variance followed by multiple comparisons between the means using the least significant difference test. A probability of p<0.05 was considered to indicate statistical significance.

[1] = tested on: p135 (135 kD O-glycosylated protein) in isolated islets; assay: p135 O-glycosylation in isolated islets (RL2 immunoprecipitation and Western blotting); assay type: cell-based, rat; conditions: for increase in p135 O-glycosylation: 5 mM, 60 min, islets isolated in 11 mM glucose and 1 mM L-glutamine; for effect on glucose-induced p135 O-glycosylation: 100 μM DON with 28 mM glucose
Experimental: as §1, §2
At the end of the experiment, all supernatant was removed from the tubes or dishes. One ml of ice-cold lysis buffer (50 mM HEPES, pH 7.40, 150 mM NaCl, 1% Triton X-100, 5 mM EDTA, 5 mM EGTA, 20 mM NaF, 20 mM Na4P2O7, 1 mM NaVO4, 1 mg/ml bacitracin, 1 mM phenylmethylsulfonylfluoride, 1 μg/ml leupeptin, 1 μg/ml aprotinin) was added to each tube or dish. Cells were scraped on ice into 1.5 ml conical screw cap Eppendorf tubes. Borosilicate tubes containing islets were vortexed for 30 sec and placed on ice for 30 min. Islet samples were vortexed for an additional minute before transfer to 1.5-ml conical screw cap Eppendorf tubes. All subsequent immunoprecipitation steps were performed at 4° C. Samples were centrifuged at 10,000×g for 15 min. The supernatant was transferred to a second 1.5-ml conical Eppendorf tube, and O-glycosylated proteins were immunoprecipitated for 2 h on a rocker with 2 μl of mouse monoclonal RL2 antibody, which selectively binds to O-glycosylated protein (21,22). After 2 h, 20 μl of protein A trisacryl beads (Pierce) preadsorbed with 20 μg of rabbit anti-mouse antibody (Sigma) were added to the tubes and the incubation was continued for an additional 2 hours. At the end of the incubation, beads were washed once with Wash Buffer 1 (150 mM NaCl, 10 mM HEPES, pH 7.40, 1% Triton X-100, and 0.1% SDS) and once with Wash Buffer 2 (10 mM HEPES, pH 7.40, 1% Triton X-100, and 0.1% SDS). After the final washing step, 25 μl of 2× sample buffer (100 mM Tris, pH 6.80, 4% SDS, 20% glycerol, and 20 μg/liter bromophenol blue) was added to each tube. Samples were vortexed for 30 sec, boiled for 5 min, and stored at −20° C. prior to subsequent analysis.
Samples were loaded onto 7.5% SDS-polyacrylamide gels. Colored molecular weight markers (Amersham) were run on each gel. Proteins were separated for 1 h at 175 V at room temperature using a Bio-Rad Mini-PROTEAN II dual slab cell. […]

β-cells = conditions: 50-100 mg/kg administered to a rat; development of diabetes; cited from earlier work
[2] = tested on: RL2 antibody binding to p135; assay: Blocking of RL2 antibody immunoprecipitation of p135 by added sugars; set-up: species or system mouse; conditions: 0.3 M added during the RL2 immunoprecipitation step (FIG. 3)
Experimental: Islets (100/condition) were incubated for 60 min with either 3 mM glucose (G3) or 28 mM glucose following pre-incubation with 5 mM streptozotocin (STZ). At the end of the incubation period, O-glycosylated proteins were immunoprecipitated with RL2 antibody in the presence of 0.3 M N-acetylglucosamine (GlcNAc), 0.3 M N-acetylgalactosamine (GalNAc), or 0.3 M glucosamine (GlcN) and analyzed by Western blotting as described in FIG. 1.
At the end of the experiment, all supernatant was removed from the tubes or dishes. One ml of ice-cold lysis buffer (50 mM HEPES, pH 7.40, 150 mM NaCl, 1% Triton X-100, 5 mM EDTA, 5 mM EGTA, 20 mM NaF, 20 mM Na4P2O7, 1 mM NaVO4, 1 mg/ml bacitracin, 1 mM phenylmethylsulfonylfluoride, 1 μg/ml leupeptin, 1 μg/ml aprotinin) was added to each tube or dish. Cells were scraped on ice into 1.5 ml conical screw cap Eppendorf tubes. Borosilicate tubes containing islets were vortexed for 30 sec and placed on ice for 30 min. Islet samples were vortexed for an additional minute before transfer to 1.5-ml conical screw cap Eppendorf tubes. All subsequent immunoprecipitation steps were performed at 4° C. Samples were centrifuged at 10,000×g for 15 min. […]

CN(N=O)C(=O)N[C@H]1C(O)O[C@H](CO)[C@@H](O)[C@@H]1O (mixture of isomers) [streptozotocin]
O-glycosylation response of β-TC3 cells (β-TC3 cells): fail to undergo increased O-glycosylation | Insulin (secretion in isolated islets) (isolated islets; 5 mM, DON 0, 60 min, control 3 mM glucose = 100): 147.1 ± 16.8% | Insulin (secretion in isolated islets) (isolated islets; 5 mM, DON 100 (μM), 60 min, control 3 mM glucose = 100): 115.6 ± 7.8% | reversibility of p135 O-glycosylation ([1]; 5 mM pre-incubation 30 min, then 3 or 28 mM glucose 30 min, then 3 mM glucose 30 min (FIG. 5)): not readily reversible | stimulation of p135 O-glycosylation in the presence of DON ([1]; 5 mM with 100 μM DON, 60 min (FIG. 4)): able to increase p135 O-glycosylation | increase in p135 O-glycosylation ([1]; compared to 3 mM glucose control (FIG. 7 experiment)): 361.3±78.8% | increase in p135 O-glycosylation ([1]; versus 3 mM glucose control (FIG. 2)): 333.9±66.8% | stimulation of p135 O-glycosylation ([1]; islets isolated in low glucose and no added L-glutamine, concentration not given): no consistent increase in p135 O-glycosylation | time to death of most of the β-cells (β-cells): ≤ 8 h

[N-]=[N+]=CC(=O)CC[C@H](N)C(=O)O [DON, 6-diazo-5-oxonorleucine]
effect on glucose-induced insulin secretion (isolated islets; 100 μM DON with 28 mM glucose, 60 min): no significant effect | Insulin (secretion in isolated islets) (isolated islets; DON 100 (μM) in 3 mM glucose, 60 min, control 3 mM glucose without DON = 100): 160.6 ± 50.5% | effect on glucose-induced p135 O-glycosylation ([1]; 60 min (FIG. 4)): inhibited | effect on glucose-induced p135 O-glycosylation ([1]; 60 min (FIG. 4), listed as 5-diazo-oxo-norleucine): completely blocked

CC(=O)N[C@H]1C(O)O[C@H](CO)[C@H](O)[C@@H]1O (stereo partly drawn) [GalNAc, N-acetylgalactosamine]
inhibition of RL2 immunoprecipitation of p135 [2]: neither GalNAc nor glucosamine added at the same concentration as GlcNAc prevented

CC(=O)N[C@H]1C(O)O[C@H](CO)[C@@H](O)[C@@H]1O (stereo partly drawn) [GlcNAc, N-acetylglucosamine]
inhibition of RL2 immunoprecipitation of p135 [2]: completely inhibited
